# According to patent US6927226B2, “Antidepressant azaheterocyclymethyl derivatives of 7,8-dihydro-3H-6,9-dioxa-1,3-diazacyclopenta[a]naphthalene” (Wyeth, priority 2001, dated 2005):
# Where a name gives a salt, the structure may show the parent alone. Read-outs that look alike come from different tables or passages of the source.
# Tests used:
# [1] = target: T1, cloned human 5-HT1A receptors (Homo sapiens, UniProt P08908); assay: 35S-GTPγS binding assay, antagonist activity at 5-HT1A receptors; type: biochemical; conditions: reversal of the effects of the standard agonist 8-OHDPAT; for IC50: membranes with cloned human 5-HT1A receptors, read-out: 5-HT1A Function IC50
# T1 construct: expressed in transfected cells
# T1 sequence (P08908 1-422): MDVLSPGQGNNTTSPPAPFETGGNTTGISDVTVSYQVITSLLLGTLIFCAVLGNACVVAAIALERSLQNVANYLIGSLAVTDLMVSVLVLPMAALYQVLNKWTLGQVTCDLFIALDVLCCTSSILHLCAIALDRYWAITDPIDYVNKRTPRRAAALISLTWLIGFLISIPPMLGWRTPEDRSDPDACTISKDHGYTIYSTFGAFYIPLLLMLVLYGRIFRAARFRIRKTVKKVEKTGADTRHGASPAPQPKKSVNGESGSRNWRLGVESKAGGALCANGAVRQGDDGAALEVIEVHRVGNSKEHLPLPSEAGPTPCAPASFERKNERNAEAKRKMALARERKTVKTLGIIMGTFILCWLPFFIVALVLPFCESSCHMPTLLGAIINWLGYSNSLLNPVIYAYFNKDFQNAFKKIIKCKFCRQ
# Experimental: Antagonist activity at 5-HT1A receptors was established by using a ^35S-GTPγS binding assay similar to that used by Lazareno and Birdsall (Br. J. Pharmacol. 109: 1120, 1993), in which the test compound's ability to affect the binding of ^35S-GTPγS to membranes containing cloned human 5-HT1A receptors was determined. Agonists produce an increase in binding whereas antagonists produce no increase but rather reverse the effects of the standard agonist 8-OHDPAT. The test compound's maximum inhibitory effect is represented as the Imax, while its potency is defined by the IC50.
# serotonin transporter = target: T2, serotonin transporter (Rattus norvegicus, UniProt P31652); assay: 3H-paroxetine displacement, affinity for the serotonin transporter; type: binding
# T2 construct: displace ^3H-paroxetine from male rat frontal cortical membranes; from tissue; host or cells: male rat frontal cortex membranes
# human 5-HT1A receptors = target: T3, human 5-HT1A receptors (Homo sapiens, UniProt P08908); assay: [3H] 8-OHDPAT displacement from the 5-HT1A receptor (transfected CHO cells); type: binding
# T3 construct: expressed in transfected cells; host or cells: CHO cells, stably transfected
# T3 sequence (P08908 1-422): T1 sequence (P08908 1-422)
# Description: High affinity for the serotonin 5-HT1A receptor was established by testing the claimed compound's ability to displace [^3H] 8-OHDPAT (dipropylaminotetralin) from the 5-HT1A serotonin receptor following a modification of the procedure of Hall et al., J. Neurochem. 44, 1685 (1985) which utilizes CHO cells stably transfected with human 5-HT1A receptors.
# [2] = displacement of 3H-paroxetine, male rat frontal cortical membranes, read-out: 5-HT Transporter Affinity KI
# [3] = displacement of [3H] 8-OHDPAT, CHO cells stably transfected with human 5-HT1A receptors, read-out: 5-HT1A Receptor Affinity KI
# T2 sequence (P31652 whole entry): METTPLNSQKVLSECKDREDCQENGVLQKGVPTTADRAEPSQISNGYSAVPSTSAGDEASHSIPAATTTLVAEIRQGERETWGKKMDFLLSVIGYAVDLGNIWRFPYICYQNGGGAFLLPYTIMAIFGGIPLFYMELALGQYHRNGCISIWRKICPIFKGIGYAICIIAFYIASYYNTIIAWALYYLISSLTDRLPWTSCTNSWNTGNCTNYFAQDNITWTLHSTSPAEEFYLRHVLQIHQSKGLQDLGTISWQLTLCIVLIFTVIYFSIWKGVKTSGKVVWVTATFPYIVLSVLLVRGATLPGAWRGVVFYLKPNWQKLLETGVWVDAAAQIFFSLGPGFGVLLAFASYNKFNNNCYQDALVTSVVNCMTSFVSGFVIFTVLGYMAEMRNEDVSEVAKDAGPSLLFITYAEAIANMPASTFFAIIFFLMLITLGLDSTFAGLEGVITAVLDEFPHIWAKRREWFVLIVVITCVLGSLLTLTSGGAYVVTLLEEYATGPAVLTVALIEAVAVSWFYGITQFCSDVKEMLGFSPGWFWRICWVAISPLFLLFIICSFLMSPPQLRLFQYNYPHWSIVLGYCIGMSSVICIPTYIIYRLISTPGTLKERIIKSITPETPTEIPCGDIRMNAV
SMILES,melting point [°C],"5-HT1A Function (Imax), maximum inhibitory effect [1]",IC50 [1] [nM],Ki (serotonin transporter; [2]) [nM],Ki (human 5-HT1A receptors; [3]) [nM],Ki (serotonin transporter) [nM],Ki (human 5-HT1A receptors) [nM]
"Fc1ccc2[nH]cc(C3=CCN(CC4COc5ccc6[nH]c(C(F)(F)F)nc6c5O4)CC3)c2c1 (stereo not drawn) (as salt: fumarate) [Example 1, 8-[4-(5-Fluoro-1H-indol-3-yl)-3,6-dihydro-2H-pyridin-1-ylmethyl]-2-trifluoromethyl-7,8-dihydro-3H-6,9-dioxa-1,3-diaza-cyclopenta[a]naphthalene]",236 to 238,,,,,,
"Fc1cccc2c(C3=CCN(CC4COc5ccc6[nH]c(C(F)(F)F)nc6c5O4)CC3)c[nH]c12 (stereo not drawn) (as salt: fumarate) [Example 7, 8-[4-(7-Fluoro-1H-indol-3-yl)-3,6-dihydro-2H-pyridin-1-ylmethyl]-2-trifluoromethyl-7,8-dihydro-3H-6,9-dioxa-1,3-diaza-cyclopenta[a]naphthalene]",239 to 240,,,,,,
"FC(F)(F)C(F)(F)c1nc2c3c(ccc2[nH]1)OCC(CN1CC=C(c2c[nH]c4ccccc24)CC1)O3 (stereo not drawn) [Example 8, 8-[4-(1H-Indol-3-yl)-3,6-dihydro-2H-pyridin-1-ylmethyl]-2-pentafluoroethyl-7,8-dihydro-3H-6,9-dioxa-1,3-diaza-cyclopenta[a]naphthalene]",,(91.1),43.6,1.25,1.88,,
"Fc1ccc2c(C3=CCN(CC4COc5ccc6[nH]c(C(F)(F)F)nc6c5O4)CC3)c[nH]c2c1 (stereo not drawn) [Example 3, 8-[4-(6-Fluoro-1H-indol-3-yl)-3,6-dihydro-2H-pyridin-1-ylmethyl]-2-trifluoromethyl-7,8-dihydro-3H-6,9-dioxa-1,3-diaza-cyclopenta[a]naphthalene]",,(66.5),22,,,1.12,2.67
"CCc1nc2c3c(ccc2[nH]1)OCC(CN1CC=C(c2c[nH]c4ccccc24)CC1)O3 (stereo not drawn) [Example 6, 8-[4-(1H-Indol-3-yl)-3,6-dihydro-2H-pyridin-1-ylmethyl]-2-ethyl-7,8-dihydro-3H-6,9-dioxa-1,3-diaza-cyclopenta[a]naphthalene]",,(35.0),36,,,0.42,1.34
"CCc1nc2c3c(ccc2[nH]1)OCC(CN1CC=C(c2c[nH]c4ccccc24)CC1)O3 (stereo not drawn) (as salt: fumarate) [Example 6, 8-[4-(1H-Indol-3-yl)-3,6-dihydro-2H-pyridin-1-ylmethyl]-2-ethyl-7,8-dihydro-3H-6,9-dioxa-1,3-diaza-cyclopenta[a]naphthalene]",231 to 232,,,,,,
"Cc1nc2c3c(ccc2[nH]1)OCC(CN1CC=C(c2c[nH]c4ccccc24)CC1)O3 (stereo not drawn) [Example 4, 8-[4-(1H-Indol-3-yl)-3,6-dihydro-2H-pyridin-1-ylmethyl]-2-methyl-7,8-dihydro-3H-6,9-dioxa-1,3-diaza-cyclopenta[a]naphthalene]",,(100),10,,,0.41,1.58
"FC(F)(F)c1nc2c3c(ccc2[nH]1)OCC(CN1CC=C(c2c[nH]c4ccccc24)CC1)O3 (stereo not drawn) (as salt: fumarate) [Example 2, 8-[4-(1H-Indol-3-yl)-3,6-dihydro-2H-pyridin-1-ylmethyl]-2-trifluoromethyl-7,8-dihydro-3H-6,9-dioxa-1,3-diaza-cyclopenta[a]naphthalene]",231 to 233,,,,,,
"FC(F)(F)C(F)(F)c1nc2c3c(ccc2[nH]1)OCC(CN1CC=C(c2c[nH]c4ccccc24)CC1)O3 (stereo not drawn) (as salt: fumarate) [Example 8, 8-[4-(1H-Indol-3-yl)-3,6-dihydro-2H-pyridin-1-ylmethyl]-2-pentafluoroethyl-7,8-dihydro-3H-6,9-dioxa-1,3-diaza-cyclopenta[a]naphthalene]",238 to 239,,,,,,
"Fc1cccc2c(C3=CCN(CC4COc5ccc6[nH]c(C(F)(F)F)nc6c5O4)CC3)c[nH]c12 (stereo not drawn) [Example 7, 8-[4-(7-Fluoro-1H-indol-3-yl)-3,6-dihydro-2H-pyridin-1-ylmethyl]-2-trifluoromethyl-7,8-dihydro-3H-6,9-dioxa-1,3-diaza-cyclopenta[a]naphthalene]",,(89.1),27.4,,,0.69,0.81
"Fc1ccc2[nH]cc(C3=CCN(CC4COc5ccc6[nH]c(C(F)(F)F)nc6c5O4)CC3)c2c1 (stereo not drawn) [Example 1, 8-[4-(5-Fluoro-1H-indol-3-yl)-3,6-dihydro-2H-pyridin-1-ylmethyl]-2-trifluoromethyl-7,8-dihydro-3H-6,9-dioxa-1,3-diaza-cyclopenta[a]naphthalene]",,(100),93.5,,,1.04,3.07
"FC(F)(F)c1nc2c3c(ccc2[nH]1)OCC(CN1CC=C(c2c[nH]c4ccccc24)CC1)O3 (stereo not drawn) [Example 2, 8-[4-(1H-Indol-3-yl)-3,6-dihydro-2H-pyridin-1-ylmethyl]-2-trifluoromethyl-7,8-dihydro-3H-6,9-dioxa-1,3-diaza-cyclopenta[a]naphthalene]",,(82.5),29,,,1.05,1.76
"Cc1nc2ccc3c(c2n1C)OC(CN1CC=C(c2c[nH]c4ccccc24)CC1)CO3 (stereo not drawn) [Example 5, 8-[4-(1H-Indol-3-yl)-3,6-dihydro-2H-pyridin-1-ylmethyl]-1,2-dimethyl-7,8-dihydro-3H-6,9-dioxa-1,3-diaza-cyclopenta[a]naphthalene]",,(100),6520,2,52,,
"Cc1nc2c3c(ccc2[nH]1)OCC(CN1CC=C(c2c[nH]c4ccccc24)CC1)O3 (stereo not drawn) (as salt: fumarate) (hydrate or solvate) [Example 4, 8-[4-(1H-Indol-3-yl)-3,6-dihydro-2H-pyridin-1-ylmethyl]-2-methyl-7,8-dihydro-3H-6,9-dioxa-1,3-diaza-cyclopenta[a]naphthalene]",219 to 222,,,,,,
"Fc1ccc2c(C3=CCN(CC4COc5ccc6[nH]c(C(F)(F)F)nc6c5O4)CC3)c[nH]c2c1 (stereo not drawn) (as salt: fumarate) (hydrate or solvate) [Example 3, 8-[4-(6-Fluoro-1H-indol-3-yl)-3,6-dihydro-2H-pyridin-1-ylmethyl]-2-trifluoromethyl-7,8-dihydro-3H-6,9-dioxa-1,3-diaza-cyclopenta[a]naphthalene]",215 to 220,,,,,,
